Measured values taken from patent US10245261B2, “Substituted indol-5-ol derivatives and their therapeutic applications” (NantBioScience, Inc., priority 2013, dated 2019).

Key:
Assay in all cases: KinaseProfiler kinase assay
Format in all cases: biochemical
ACK1(h) = ACK1(h) (Homo sapiens, UniProt Q07912)
Summary of the method: (§1)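 Buffer 20 mM MOPS, 1 mM EDTA, 0.01% Brij-35, 5% glycerol, 0.1% β-mercaptoethanol, 1 mg/mL BSA for compound dilution; reaction at pH 7.0 with [γ-33P]ATP, 40 min RT; filtermat/scintillation read-out; 0%/100% set by no-kinase and phosphopeptide wells.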

ALK(h) = ALK(h) (Homo sapiens, UniProt Q9UM73)
Summary of the method: as §1

Bmx(h) = Bmx(h) (Homo sapiens, UniProt P51813)
Summary of the method: as §1

CDK2/cyclinE(h) = CDK2/cyclinE(h) (Homo sapiens, UniProt P24941)
Summary of the method: as §1

CDK6/cyclinD3(h) = CDK6/cyclinD3(h) (Homo sapiens, UniProt Q00534)
Summary of the method: as §1

CDK7/cyclinH/MAT1(h) = CDK7/cyclinH/MAT1(h) (Homo sapiens, UniProt P50613)
Summary of the method: as §1

CK2(h) = CK2(h) (Homo sapiens, UniProt P68400)
Summary of the method: as §1

DAPK1(h) = DAPK1(h) (Homo sapiens, UniProt P53355)
Summary of the method: as §1

EGFR(L861Q)(h) = EGFR(L861Q)(h) (Homo sapiens, UniProt P00533, L861Q)
Summary of the method: as §1

EphA2(h) = EphA2(h) (Homo sapiens, UniProt P29317)
Summary of the method: as §1

EphA5(h) = EphA5(h) (Homo sapiens, UniProt P54756)
Summary of the method: as §1

IRAK1(h) = IRAK1(h) (Homo sapiens, UniProt P51617)
Summary of the method: as §1

JNK1α1(h) = JNK1α1(h) (Homo sapiens, UniProt P45983)
Summary of the method: as §1

LIMK1(h) = LIMK1(h) (Homo sapiens, UniProt P53667)
Summary of the method: as §1

Lyn(m) = Lyn(m) (Mus musculus, UniProt P25911)
Summary of the method: as §1

MSK1(h) = MSK1(h) (Homo sapiens, UniProt O75582)
Summary of the method: as §1

MST3(h) = MST3(h) (Homo sapiens, UniProt Q9Y6E0)
Summary of the method: as §1

Met(D1246N)(h) = Met(D1246N)(h) (Homo sapiens, UniProt P08581, D1228N)
Summary of the method: as §1

NLK(h) = NLK(h) (Homo sapiens, UniProt Q9UBE8)
Summary of the method: as §1

[1] = molecular target: PI3 Kinase (p110α(E545K)/p85α)(h) (Homo sapiens, UniProt P42336, E545K)
Summary of the method: as §1

[2] = molecular target: PI3 Kinase (p110α/p85α)(m) (Mus musculus, UniProt P42337)
Summary of the method: as §1

PI3KC2γ(h) = PI3KC2γ(h) (Homo sapiens, UniProt O75747)
Summary of the method: as §1

PKBγ(h) = PKBγ(h) (Homo sapiens, UniProt Q9Y243)
Summary of the method: as §1

PKCγ(h) = PKCγ(h) (Homo sapiens, UniProt P05129)
Summary of the method: as §1

PKCμ(h) = PKCμ(h) (Homo sapiens, UniProt Q15139)
Summary of the method: as §1

Rsk2(h) = Rsk2(h) (Homo sapiens, UniProt P51812)
Summary of the method: as §1

SRPK2(h) = SRPK2(h) (Homo sapiens, UniProt P78362)
Summary of the method: as §1

TAO2(h) = TAO2(h) (Homo sapiens, UniProt Q9UL54)
Summary of the method: as §1

TrkB(h) = TrkB(h) (Homo sapiens, UniProt Q16620)
Summary of the method: as §1

cKit(D816V)(h) = cKit(D816V)(h) (Homo sapiens, UniProt P10721, D816V)
Summary of the method: as §1

cKit(h) = cKit(h) (Homo sapiens, UniProt P10721)
Summary of the method: as §1

Chain of LIMK1(h) (P53667 whole entry): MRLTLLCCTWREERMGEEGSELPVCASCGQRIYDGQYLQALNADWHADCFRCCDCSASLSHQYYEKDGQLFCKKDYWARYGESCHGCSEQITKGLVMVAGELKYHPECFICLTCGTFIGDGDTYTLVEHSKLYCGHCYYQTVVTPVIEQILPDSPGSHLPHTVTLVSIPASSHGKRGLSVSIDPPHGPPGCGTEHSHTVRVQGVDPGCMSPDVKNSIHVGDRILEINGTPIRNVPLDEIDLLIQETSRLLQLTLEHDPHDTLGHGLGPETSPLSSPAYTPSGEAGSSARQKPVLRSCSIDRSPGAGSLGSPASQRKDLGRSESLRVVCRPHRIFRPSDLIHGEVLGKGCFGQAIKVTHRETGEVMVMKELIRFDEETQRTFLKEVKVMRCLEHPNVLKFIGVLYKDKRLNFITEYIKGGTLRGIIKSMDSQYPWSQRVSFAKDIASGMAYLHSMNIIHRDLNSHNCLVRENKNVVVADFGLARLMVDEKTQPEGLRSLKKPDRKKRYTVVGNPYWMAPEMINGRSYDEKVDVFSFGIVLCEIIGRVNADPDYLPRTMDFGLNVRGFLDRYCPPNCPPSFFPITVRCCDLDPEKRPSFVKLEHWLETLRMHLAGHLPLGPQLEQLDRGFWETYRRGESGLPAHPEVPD
Chain of CK2(h) (P68400 whole entry): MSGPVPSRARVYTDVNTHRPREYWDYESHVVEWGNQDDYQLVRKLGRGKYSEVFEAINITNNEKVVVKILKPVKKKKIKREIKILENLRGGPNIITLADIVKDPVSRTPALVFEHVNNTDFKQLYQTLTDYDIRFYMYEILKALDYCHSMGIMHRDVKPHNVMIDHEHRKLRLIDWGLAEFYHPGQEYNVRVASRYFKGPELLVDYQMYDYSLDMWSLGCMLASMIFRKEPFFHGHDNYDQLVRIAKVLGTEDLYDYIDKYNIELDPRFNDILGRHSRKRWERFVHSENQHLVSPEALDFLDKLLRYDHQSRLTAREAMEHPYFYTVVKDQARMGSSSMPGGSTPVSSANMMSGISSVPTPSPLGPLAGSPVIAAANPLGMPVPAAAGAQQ
Chain of CK2(h) (P67870 whole entry partner): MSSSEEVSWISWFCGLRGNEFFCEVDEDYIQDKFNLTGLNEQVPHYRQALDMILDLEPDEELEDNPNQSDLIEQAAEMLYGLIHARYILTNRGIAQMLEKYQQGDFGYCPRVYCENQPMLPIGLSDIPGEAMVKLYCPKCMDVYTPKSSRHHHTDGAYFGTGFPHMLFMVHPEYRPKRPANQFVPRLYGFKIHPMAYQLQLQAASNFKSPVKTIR
Chain of MSK1(h) (O75582 whole entry): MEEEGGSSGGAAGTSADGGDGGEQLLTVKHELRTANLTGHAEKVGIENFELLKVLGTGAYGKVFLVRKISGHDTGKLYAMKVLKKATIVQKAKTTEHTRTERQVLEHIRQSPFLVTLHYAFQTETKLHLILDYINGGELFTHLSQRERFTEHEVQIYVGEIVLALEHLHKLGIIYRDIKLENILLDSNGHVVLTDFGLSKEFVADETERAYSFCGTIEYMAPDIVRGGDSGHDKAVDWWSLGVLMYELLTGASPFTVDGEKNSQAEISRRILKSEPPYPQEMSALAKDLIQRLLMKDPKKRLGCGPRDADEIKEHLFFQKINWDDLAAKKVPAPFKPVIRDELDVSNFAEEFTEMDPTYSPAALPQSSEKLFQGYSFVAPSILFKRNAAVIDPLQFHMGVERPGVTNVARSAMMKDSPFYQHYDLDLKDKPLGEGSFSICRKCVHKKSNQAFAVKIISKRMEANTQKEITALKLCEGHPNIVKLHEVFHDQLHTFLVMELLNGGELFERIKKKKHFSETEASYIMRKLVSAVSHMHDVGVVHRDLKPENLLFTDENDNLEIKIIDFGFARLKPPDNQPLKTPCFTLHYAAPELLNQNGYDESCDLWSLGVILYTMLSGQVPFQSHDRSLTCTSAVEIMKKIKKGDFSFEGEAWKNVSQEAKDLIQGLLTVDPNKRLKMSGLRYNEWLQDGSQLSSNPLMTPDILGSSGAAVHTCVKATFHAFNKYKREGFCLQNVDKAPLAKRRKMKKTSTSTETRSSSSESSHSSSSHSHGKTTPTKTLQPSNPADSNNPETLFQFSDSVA
Chain of Lyn(m) (P25911 whole entry): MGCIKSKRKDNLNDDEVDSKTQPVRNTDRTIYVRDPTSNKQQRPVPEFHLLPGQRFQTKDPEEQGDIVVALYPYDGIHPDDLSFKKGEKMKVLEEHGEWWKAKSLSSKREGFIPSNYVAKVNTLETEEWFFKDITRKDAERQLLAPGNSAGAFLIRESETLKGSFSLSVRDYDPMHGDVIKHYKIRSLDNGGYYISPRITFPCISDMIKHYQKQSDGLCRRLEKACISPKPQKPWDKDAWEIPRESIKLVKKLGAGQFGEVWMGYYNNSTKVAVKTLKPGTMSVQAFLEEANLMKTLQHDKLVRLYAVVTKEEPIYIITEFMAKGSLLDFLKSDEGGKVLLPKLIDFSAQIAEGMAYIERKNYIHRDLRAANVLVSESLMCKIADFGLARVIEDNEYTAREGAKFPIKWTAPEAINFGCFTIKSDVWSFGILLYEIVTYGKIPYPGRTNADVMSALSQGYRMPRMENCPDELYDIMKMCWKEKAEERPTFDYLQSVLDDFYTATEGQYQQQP
Chain of SRPK2(h) (P78362 whole entry): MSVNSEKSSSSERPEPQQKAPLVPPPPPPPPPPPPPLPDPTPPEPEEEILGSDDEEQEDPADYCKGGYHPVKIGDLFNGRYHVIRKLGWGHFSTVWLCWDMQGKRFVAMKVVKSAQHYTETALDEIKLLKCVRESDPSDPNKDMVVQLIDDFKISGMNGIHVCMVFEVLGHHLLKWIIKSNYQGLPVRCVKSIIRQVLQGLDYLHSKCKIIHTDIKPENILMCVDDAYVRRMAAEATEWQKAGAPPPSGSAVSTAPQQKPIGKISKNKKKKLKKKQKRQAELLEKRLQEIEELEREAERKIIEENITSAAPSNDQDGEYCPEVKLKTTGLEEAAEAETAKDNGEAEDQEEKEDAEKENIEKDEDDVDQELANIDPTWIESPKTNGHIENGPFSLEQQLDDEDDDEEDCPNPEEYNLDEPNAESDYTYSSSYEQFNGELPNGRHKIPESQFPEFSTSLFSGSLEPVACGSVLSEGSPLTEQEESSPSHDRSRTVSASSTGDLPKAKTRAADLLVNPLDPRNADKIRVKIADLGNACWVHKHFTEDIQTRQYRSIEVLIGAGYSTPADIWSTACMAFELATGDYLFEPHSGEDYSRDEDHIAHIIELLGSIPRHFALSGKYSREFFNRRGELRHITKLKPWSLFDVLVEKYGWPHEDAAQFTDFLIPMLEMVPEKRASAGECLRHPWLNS
Chain of TrkB(h) (Q16620 32-822): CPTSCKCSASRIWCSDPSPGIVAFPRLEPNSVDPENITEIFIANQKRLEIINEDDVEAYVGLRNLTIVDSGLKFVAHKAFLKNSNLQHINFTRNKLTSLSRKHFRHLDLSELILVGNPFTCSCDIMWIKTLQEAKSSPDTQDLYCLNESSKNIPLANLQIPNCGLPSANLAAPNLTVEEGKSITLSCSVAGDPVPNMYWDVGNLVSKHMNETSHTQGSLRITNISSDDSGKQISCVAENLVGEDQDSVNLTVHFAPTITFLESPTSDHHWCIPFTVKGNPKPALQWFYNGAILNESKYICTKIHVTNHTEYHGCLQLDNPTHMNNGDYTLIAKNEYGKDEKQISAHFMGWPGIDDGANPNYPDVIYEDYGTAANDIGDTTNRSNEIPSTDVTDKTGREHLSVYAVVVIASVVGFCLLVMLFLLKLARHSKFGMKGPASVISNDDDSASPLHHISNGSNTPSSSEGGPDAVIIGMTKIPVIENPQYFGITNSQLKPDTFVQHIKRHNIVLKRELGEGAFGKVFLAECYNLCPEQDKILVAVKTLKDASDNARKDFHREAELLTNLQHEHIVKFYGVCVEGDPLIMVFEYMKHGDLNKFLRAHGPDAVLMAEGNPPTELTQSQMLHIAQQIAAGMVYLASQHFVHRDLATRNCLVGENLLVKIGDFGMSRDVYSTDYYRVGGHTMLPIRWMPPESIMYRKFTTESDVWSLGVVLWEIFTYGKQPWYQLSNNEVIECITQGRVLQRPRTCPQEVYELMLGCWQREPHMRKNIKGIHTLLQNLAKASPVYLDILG

Row | SMILES | inhibition at 0.1 µM (ACK1(h)) [%] | inhibition at 0.1 µM (ALK(h)) [%] | inhibition at 0.1 µM (Bmx(h)) [%] | inhibition at 0.1 µM (CDK2/cyclinE(h)) [%] | inhibition at 0.1 µM (CDK6/cyclinD3(h)) [%] | inhibition at 0.1 µM (CDK7/cyclinH/MAT1(h)) [%] | inhibition at 0.1 µM (CK2(h)) [%] | inhibition at 0.1 µM (DAPK1(h)) [%] | inhibition at 0.1 µM (EGFR(L861Q)(h)) [%] | inhibition at 0.1 µM (EphA2(h)) [%] | inhibition at 0.1 µM (EphA5(h)) [%] | inhibition at 0.1 µM (IRAK1(h)) [%] | inhibition at 0.1 µM (JNK1α1(h)) [%] | inhibition at 0.1 µM (LIMK1(h)) [%] | inhibition at 0.1 µM (Lyn(m)) [%] | inhibition at 0.1 µM (MSK1(h)) [%] | inhibition at 0.1 µM (MST3(h)) [%] | inhibition at 0.1 µM (Met(D1246N)(h)) [%] | inhibition at 0.1 µM (NLK(h)) [%] | inhibition at 0.1 µM [1] [%] | other results
1 | Cc1cc2c(F)c(Oc3nc(Nc4cc(C5CC5)[nH]n4)cc(N4CCN(C)CC4)n3)ccc2[nH]1 [Compound 10] | 99 | 87 | 98 | 1 | -5 | 44 | 8 | 0 | 2 | 96 | 76 | -2 | -7 | 83 | 98 | 96 | 85 | 80 | -12 | -2 | inhibition at 0.1 µM [2]: 1%; inhibition at 0.1 µM (PI3KC2γ(h)): 27%; inhibition at 0.1 µM (PKBγ(h)): -10%; inhibition at 0.1 µM (PKCγ(h)): -8%; inhibition at 0.1 µM (PKCμ(h)): 7%; inhibition at 0.1 µM (Rsk2(h)): 37%; inhibition at 0.1 µM (SRPK2(h)): 6%; inhibition at 0.1 µM (TAO2(h)): 18%; inhibition at 0.1 µM (TrkB(h)): 103%; inhibition at 0.1 µM (cKit(D816V)(h)): 33%; inhibition at 0.1 µM (cKit(h)): 0%
2 | Cc1cc2c(F)c(Oc3nc(Nc4cc(C5CC5)[nH]n4)cc(N4CCNCC4)n3)ccc2[nH]1 [Compound 11, N-(5-cyclopropyl-1H-pyrazol-3-yl)-2-((4-fluoro-2-methyl-1H-indol-5-yl)oxy)-6-(piperazin-1-yl)pyrimidin-4-amine] | 95 | 86 | 99 | 3 | 11 | 26 | 5 | 3 | 34 | 98 | 81 | -9 | 11 | 90 | 101 | 9 | 80 | 84 | -8 | 2 | inhibition at 0.1 µM [2]: -1%; inhibition at 0.1 µM (PI3KC2γ(h)): -2%; inhibition at 0.1 µM (PKBγ(h)): -18%; inhibition at 0.1 µM (PKCγ(h)): -5%; inhibition at 0.1 µM (PKCμ(h)): -7%; inhibition at 0.1 µM (Rsk2(h)): 7%; inhibition at 0.1 µM (SRPK2(h)): 0%; inhibition at 0.1 µM (TAO2(h)): 16%; inhibition at 0.1 µM (TrkB(h)): 100%; inhibition at 0.1 µM (cKit(D816V)(h)): 38%; inhibition at 0.1 µM (cKit(h)): 24%
